# Laboratory results reported in patent US20040235874A1, “Fungicidal composition comprising pyrimethanil and iprodione” (priority 2001, published 2004).
# Key:
# Format in all cases: in vivo
# Alternaria solani = assay: Field control of Alternaria solani on potato; settings: potato Bintje
# Source text: This example illustrates the efficacy of a composition according to the invention which comprises pyrimethanil and iprodione as active ingredients for controlling Alternaria solani on the potato. […] The following fungicidal compounds are compared: iprodione at the dose of 750 g/ha, pyrimethanil at the dose of 600 g/ha, […] The products are applied to potato (Bintje variety) which is sensitive to Alternaria solani. […] mancozeb—product tested—mancozeb—product tested—mancozeb—product tested. Scores for the disease (percentage of foliar surface area destroyed) are awarded 15 days after the second application of the experiment products (15 DAB), 8 days and 17 days after the third application of the experimental products (8 DAC and 17 DAC).
# Alternaria dauci = assay: Field control of Alternaria dauci on carrot; settings: carrot Nantes
# Source text: This example illustrates the efficacy of a composition according to the invention which comprises pyrimethanil and iprodione as active ingredients for controlling alternaria dauci on carrot. The following fungicidal compounds are compared: iprodione at the dose of 750 g/ha, pyrimethanil at the dose of 600 g/ha, […] The products are applied to carrot (Nantes variety) which is sensitive to Alternaria dauci. The various products to be studied are sprayed at the rate of 3 applications in total with intervals of 8 days between the 1st and 2nd applications and of 10 days between the 2nd and 3rd application. Scores for the disease (percentage of foliar surface area destroyed) are awarded 7 days after the 1st and 2nd applications and then 3 days and 8 days after the 3rd application.
# Alternaria porri = assay: Control of Alternaria porri on onion, yield at harvest; settings: for Yield (kg/ha): onion bulbs, harvest 32 days after last of 5 applications; for Yield gain (%): onion, compared with the untreated control
# Method: This example illustrates the efficacy of a composition according to the invention which comprises pyrimethanil and iprodione as active ingredients for controlling Alternaria porri on onion.
# The following fungicidal compounds are compared:
# iprodione at the dose of 750 g/ha,
# pyrimethanil at the dose of 600 g/ha,
# iprodione+pyrimethanil at the doses of 300+150 g/ha to be applied in a mixture volume of 1 000 l/ha.
# A total of 5 successive preventive sprayings are carried out on onion plants which were initially 31 days old and at a rhythm of 13 days.
# 32 days after the last application, harvesting is carried out and the yield is calculated in terms of kg of bulbs/ha and the yield gain expressed by comparing with the untreated control.
# Sclerotinia sclerotinium = assay: Control of Sclerotinia on lettuce, counting of attacked plants; settings: lettuce Manita
# Method: This sample illustrates the efficacy of a composition according to the invention which comprises pyrimethanil and iprodione as active ingredients for controlling Sclerotinia sclerotinium on lettuce. The following fungicidal compounds are compared: iprodione at the dose of 750 g/ha, pyrimethanil at the dose of 800 g/ha, […] A total of 5 […] carried out on lettuce plants ([…] variety). An inoculation with Sclerotinia is carried out the next day after the first treatment by spreading contaminated rape plant stems on the soil. 11 countings of the lettuce plants attacked by Schlerotinia are carried out throughout the trial.
# Ascochyta pisi = assay: Control of Ascochyta pisi on protein-rich peas; settings: pea Baccara, 23 days after second application
# Source text: This example illustrates the efficacy of a composition according to the invention which comprises pyrimethanil and iprodione as active ingredients for controlling Ascochyta pisi on protein-rich peas. The following fungicidal compounds are compared: […] pyrimethanil at the dose of 600 g/ha, […] Two successive […] carried out on pea plants (Baccara variety) at the flowering stages and then two weeks after the first application. 23 days after the second application, the percentage of diseased leaves and pods is calculated; the results are presented in table 5.
compound,measurement,setting,value
CC(C)NC(=O)N1CC(=O)N(c2cc(Cl)cc(Cl)c2)C1=O [iprodione],Score for the disease (percentage of foliar surface area destroyed),"Alternaria solani; 750 g/ha, 8 DAC",4.38%
same,Score for the disease (percentage of foliar surface area destroyed),"Alternaria solani; 750 g/ha, 15 DAB",1.75%
same,Score for the disease (percentage of foliar surface area destroyed),"Alternaria solani; 750 g/ha, 17 DAC",10%
same,Score for the disease (percentage of foliar surface area destroyed),"Alternaria dauci; 750 g/ha, 3 DAC",19.4%
same,Score for the disease (percentage of foliar surface area destroyed),"Alternaria dauci; 750 g/ha, 7 DAA",8.7%
same,Score for the disease (percentage of foliar surface area destroyed),"Alternaria dauci; 750 g/ha, 7 DAB",11.9%
same,Score for the disease (percentage of foliar surface area destroyed),"Alternaria dauci; 750 g/ha, 8 DAC",35%
same,Yield (kg/ha),Alternaria porri; 750 g/ha,33 000 kg/ha
same,Yield gain (%),Alternaria porri; 750 g/ha,16.8%
same,Counting of the lettuce plants attacked by Sclerotinia,"Sclerotinia sclerotinium; 750 g/ha, counting 1",1
same,Counting of the lettuce plants attacked by Sclerotinia,"Sclerotinia sclerotinium; 750 g/ha, counting 2",2.5
same,Counting of the lettuce plants attacked by Sclerotinia,"Sclerotinia sclerotinium; 750 g/ha, counting 3",3
same,Counting of the lettuce plants attacked by Sclerotinia,"Sclerotinia sclerotinium; 750 g/ha, counting 4",4
same,Counting of the lettuce plants attacked by Sclerotinia,"Sclerotinia sclerotinium; 750 g/ha, counting 5",4
same,Counting of the lettuce plants attacked by Sclerotinia,"Sclerotinia sclerotinium; 750 g/ha, counting 6",4.8
same,Counting of the lettuce plants attacked by Sclerotinia,"Sclerotinia sclerotinium; 750 g/ha, counting 7",5.5
same,Counting of the lettuce plants attacked by Sclerotinia,"Sclerotinia sclerotinium; 750 g/ha, counting 8",5.9
same,Counting of the lettuce plants attacked by Sclerotinia,"Sclerotinia sclerotinium; 750 g/ha, counting 9",6.7
same,Counting of the lettuce plants attacked by Sclerotinia,"Sclerotinia sclerotinium; 750 g/ha, counting 10",7.4
same,Counting of the lettuce plants attacked by Sclerotinia,"Sclerotinia sclerotinium; 750 g/ha, counting 11",7.9
same,Amount of diseased leaves (%),"Ascochyta pisi; 500 g/ha, first column",46%
same,Amount of diseased leaves (%),"Ascochyta pisi; 500 g/ha, second column",34%
Cc1cc(C)nc(Nc2ccccc2)n1 [pyrimethanil],Score for the disease (percentage of foliar surface area destroyed),"Alternaria solani; 600 g/ha, 8 DAC",8.75%
same,Score for the disease (percentage of foliar surface area destroyed),"Alternaria solani; 600 g/ha, 15 DAB",3.44%
same,Score for the disease (percentage of foliar surface area destroyed),"Alternaria solani; 600 g/ha, 17 DAC",13.13%
same,Score for the disease (percentage of foliar surface area destroyed),"Alternaria dauci; 600 g/ha, 3 DAC",31.2%
same,Score for the disease (percentage of foliar surface area destroyed),"Alternaria dauci; 600 g/ha, 7 DAA",11.9%
same,Score for the disease (percentage of foliar surface area destroyed),"Alternaria dauci; 600 g/ha, 7 DAB",21.9%
same,Score for the disease (percentage of foliar surface area destroyed),"Alternaria dauci; 600 g/ha, 8 DAC",57.5%
same,Yield (kg/ha),Alternaria porri; 600 g/ha,31 500 kg/ha
same,Yield gain (%),Alternaria porri; 600 g/ha,11.5%
same,Counting of the lettuce plants attacked by Sclerotinia,"Sclerotinia sclerotinium; 800 g/ha, counting 1",3.5
same,Counting of the lettuce plants attacked by Sclerotinia,"Sclerotinia sclerotinium; 800 g/ha, counting 2",5.5
same,Counting of the lettuce plants attacked by Sclerotinia,"Sclerotinia sclerotinium; 800 g/ha, counting 3",8
same,Counting of the lettuce plants attacked by Sclerotinia,"Sclerotinia sclerotinium; 800 g/ha, counting 4",14.8
same,Counting of the lettuce plants attacked by Sclerotinia,"Sclerotinia sclerotinium; 800 g/ha, counting 5",18
same,Counting of the lettuce plants attacked by Sclerotinia,"Sclerotinia sclerotinium; 800 g/ha, counting 6",22.8
same,Counting of the lettuce plants attacked by Sclerotinia,"Sclerotinia sclerotinium; 800 g/ha, counting 7",26
same,Counting of the lettuce plants attacked by Sclerotinia,"Sclerotinia sclerotinium; 800 g/ha, counting 8",29.4
same,Counting of the lettuce plants attacked by Sclerotinia,"Sclerotinia sclerotinium; 800 g/ha, counting 9",31.4
same,Counting of the lettuce plants attacked by Sclerotinia,"Sclerotinia sclerotinium; 800 g/ha, counting 10",33.9
same,Counting of the lettuce plants attacked by Sclerotinia,"Sclerotinia sclerotinium; 800 g/ha, counting 11",35.8
same,Amount of diseased leaves (%),"Ascochyta pisi; 600 g/ha, first column",21%
same,Amount of diseased leaves (%),"Ascochyta pisi; 600 g/ha, second column",16%
